Laboratory results published in PubChem BioAssay AID328 (DTP/NCI, 2004).
Inconclusive results and toxic doses are left out.

Test system: BDF1 mice, P388 leukemia ip, median survival T/C
Test: NCI In Vivo Anticancer Drug Screen. Data for tumor model P388 Leukemia (intraperitoneal) in B6D2F1 (BDF1) mice
Conditions: endpoint: median survival time, higher = longer survival
Method in brief: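 Steps: implant the tumour, treat one group with compound and another with vehicle, record survival, then divide treated by control.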

[1] = dose: 50.0 mg/kg/injection, schedule: Q01DX009 (ip), vehicle: saline with Tween-80
[2] = dose: 100.0 mg/kg/injection, schedule: Q01DX009 (ip), vehicle: saline with Tween-80
[3] = dose: 200.0 mg/kg/injection, schedule: Q01DX009 (ip), vehicle: saline with Tween-80
[4] = dose: 25.0 mg/kg/injection, schedule: Q01DX009 (ip), vehicle: saline
[5] = dose: 50.0 mg/kg/injection, schedule: Q01DX009 (ip), vehicle: saline
[6] = dose: 75.0 mg/kg/injection, schedule: Q04DX003 (ip), vehicle: saline
[7] = dose: 50.0 mg/kg/injection, schedule: Q04DX003 (ip), vehicle: saline with Tween-80
[8] = dose: 100.0 mg/kg/injection, schedule: Q04DX003 (ip), vehicle: saline with Tween-80

## CC1=C(O)/C(=C/C(C)CCC/C(C)=C/CC/C(C)=C/CCc2ccoc2)OC1=O (centres undefined)
dose: 0.31 mg/kg/injection, schedule: Q01DX009 (ip), vehicle: saline with Tween-80
  T/C: 100 % of control
dose: 0.62 mg/kg/injection, schedule: Q01DX009 (ip), vehicle: saline with Tween-80
  T/C: 104 % of control
dose: 2.5 mg/kg/injection, schedule: Q01DX009 (ip), vehicle: saline with Tween-80
  T/C: 98 % of control
dose: 5.0 mg/kg/injection, schedule: Q01DX009 (ip), vehicle: saline with Tween-80
  T/C: 90 % of control

## NNc1nncn2c1cc1ccccc12
[1]
  T/C: 86 % of control
[2]
  T/C: 107 % of control

## CCCCCCCCCCCCCCCOc1ccc(C)cc1
dose: 50.0 mg/kg/injection, schedule: Q04DX003 (ip), vehicle: saline sonified
  T/C: 90 % of control
dose: 100.0 mg/kg/injection, schedule: Q04DX003 (ip), vehicle: saline sonified
  T/C: 100 % of control
dose: 200.0 mg/kg/injection, schedule: Q04DX003 (ip), vehicle: saline sonified
  T/C: 90 % of control

## S=c1nc[nH]c2c1ncn2C1CCCC1
[2]
  T/C: 104 % of control
[3]
  T/C: 95 % of control

## CCOC(=O)C(=O)CC(=O)/C=C/c1ccccc1
[2]
  T/C: 96 % of control
[3]
  T/C: 107 % of control

## C[n+]1c(/C=C/c2ccc(O)c3ncccc23)[se]c2ccccc21
dose: 0.25 mg/kg/injection, schedule: Q01DX010 (ip), vehicle: saline
  T/C: 104 % of control
dose: 0.5 mg/kg/injection, schedule: Q01DX010 (ip), vehicle: saline
  T/C: 118 % of control
dose: 1.0 mg/kg/injection, schedule: Q01DX010 (ip), vehicle: saline
  T/C: 104 % of control
dose: 1.5 mg/kg/injection, schedule: Q01DX010 (ip), vehicle: acetone
  T/C: 165 % of control
dose: 3.0 mg/kg/injection, schedule: Q01DX010 (ip), vehicle: acetone
  T/C: 165 % of control
dose: 3.0 mg/kg/injection, schedule: Q01DX010 (ip), vehicle: saline
  T/C: 122 % of control
dose: 6.0 mg/kg/injection, schedule: Q01DX010 (ip), vehicle: acetone
  T/C: 185 % of control
dose: 25.0 mg/kg/injection, schedule: Q01DX010 (ip), vehicle: saline
  T/C: 118 % of control

## CCOC(=O)C/C(C)=N\NC(=O)c1ccncc1
dose: 75.0 mg/kg/injection, schedule: Q01DX009 (ip), vehicle: saline with Tween-80
  T/C: 88 % of control
dose: 150.0 mg/kg/injection, schedule: Q01DX009 (ip), vehicle: saline with Tween-80
  T/C: 102 % of control

## COc1ccc(OC)c(NC(=O)NC(c2ccccc2)c2ccccc2)c1
dose: 12.5 mg/kg/injection, schedule: Q01DX009 (ip), vehicle: Klucel (hydroxypropylcellulose) (HPC)
  T/C: 93 % of control

## O=C1OC(=C(c2ccccc2)c2ccccc2)c2ccccc21
dose: 50.0 mg/kg/injection, schedule: Q01DX009 (ip), vehicle: Klucel (hydroxypropylcellulose) (HPC)
  T/C: 100 % of control
dose: 100.0 mg/kg/injection, schedule: Q01DX009 (ip), vehicle: Klucel (hydroxypropylcellulose) (HPC)
  T/C: 100 % of control
dose: 200.0 mg/kg/injection, schedule: Q01DX009 (ip), vehicle: Klucel (hydroxypropylcellulose) (HPC)
  T/C: 100 % of control

## Clc1nnc(Cl)c(Cl)c1Cl
dose: 0.22 mg/kg/injection, schedule: Q01DX009 (ip), vehicle: Klucel (hydroxypropylcellulose) (HPC)
  T/C: 100 % of control
dose: 0.22 mg/kg/injection, schedule: Q04DX003 (ip), vehicle: Klucel (hydroxypropylcellulose) (HPC)
  T/C: 100 % of control
dose: 0.45 mg/kg/injection, schedule: Q01DX009 (ip), vehicle: Klucel (hydroxypropylcellulose) (HPC)
  T/C: 91 % of control
dose: 0.45 mg/kg/injection, schedule: Q04DX003 (ip), vehicle: Klucel (hydroxypropylcellulose) (HPC)
  T/C: 118 % of control
dose: 0.9 mg/kg/injection, schedule: Q01DX009 (ip), vehicle: Klucel (hydroxypropylcellulose) (HPC)
  T/C: 91 % of control
dose: 0.9 mg/kg/injection, schedule: Q04DX003 (ip), vehicle: Klucel (hydroxypropylcellulose) (HPC)
  T/C: 104 % of control
dose: 1.3 mg/kg/injection, schedule: Q04DX003 (ip), vehicle: Klucel (hydroxypropylcellulose) (HPC)
  T/C: 104 % of control
dose: 2.0 mg/kg/injection, schedule: Q04DX003 (ip), vehicle: Klucel (hydroxypropylcellulose) (HPC)
  T/C: 113 % of control
dose: 2.8 mg/kg/injection, schedule: Q01DX009 (ip), vehicle: saline
  T/C: 87 % of control
dose: 3.0 mg/kg/injection, schedule: Q04DX003 (ip), vehicle: Klucel (hydroxypropylcellulose) (HPC)
  T/C: 104 % of control

## O=[N+]([O-])c1cc([N+](=O)[O-])c2ccccc2c1NS(=O)(=O)c1ccc(Cl)c(Cl)c1Cl
[1]
  T/C: 104 % of control
[2]
  T/C: 120 % of control

## O=C(CN1CCOCC1)Nc1nc(-c2ccc(Cl)cc2)cs1
dose: 50.0 mg/kg/injection, schedule: Q01DX005 (ip), vehicle: saline with Tween-80
  T/C: 110 % of control
dose: 100.0 mg/kg/injection, schedule: Q01DX005 (ip), vehicle: saline with Tween-80
  T/C: 91 % of control

## COc1ccc(-c2oc3cc(O)cc(O)c3c(=O)c2OC)cc1O
dose: 10.0 mg/kg/injection, schedule: Q01DX010 (ip), vehicle: saline
  T/C: 100 % of control
dose: 20.0 mg/kg/injection, schedule: Q01DX010 (ip), vehicle: saline
  T/C: 100 % of control
dose: 40.0 mg/kg/injection, schedule: Q01DX010 (ip), vehicle: saline
  T/C: 109 % of control

## NC(=O)NNC(N)=O
dose: 12.5 mg/kg/injection, schedule: Q04DX003 (ip), vehicle: saline
  T/C: 105 % of control
[4]
  T/C: 100 % of control
dose: 25.0 mg/kg/injection, schedule: Q04DX003 (ip), vehicle: saline
  T/C: 116 % of control
[5]
  T/C: 100 % of control
dose: 50.0 mg/kg/injection, schedule: Q04DX003 (ip), vehicle: saline
  T/C: 100 % of control
[6]
  T/C: 100 % of control
dose: 115.0 mg/kg/injection, schedule: Q04DX003 (ip), vehicle: saline
  T/C: 86 % of control
dose: 170.0 mg/kg/injection, schedule: Q04DX003 (ip), vehicle: saline
  T/C: 90 % of control

## O=c1oc2c(CN3CCCC3)c(O)ccc2c2c1CCCC2
dose: 1.0 mg/kg/injection, schedule: Q01DX009 (ip), vehicle: Klucel (hydroxypropylcellulose) (HPC)
  T/C: 98 % of control
dose: 2.0 mg/kg/injection, schedule: Q01DX009 (ip), vehicle: Klucel (hydroxypropylcellulose) (HPC)
  T/C: 109 % of control
dose: 4.0 mg/kg/injection, schedule: Q01DX009 (ip), vehicle: Klucel (hydroxypropylcellulose) (HPC)
  T/C: 104 % of control
dose: 8.0 mg/kg/injection, schedule: Q01DX009 (ip), vehicle: Klucel (hydroxypropylcellulose) (HPC)
  T/C: 109 % of control
dose: 16.0 mg/kg/injection, schedule: Q01DX009 (ip), vehicle: Klucel (hydroxypropylcellulose) (HPC)
  T/C: 98 % of control
dose: 32.0 mg/kg/injection, schedule: Q01DX009 (ip), vehicle: Klucel (hydroxypropylcellulose) (HPC)
  T/C: 99 % of control

## CCOC(=O)C[n+]1ccccc1
[4]
  T/C: 100 % of control
[5]
  T/C: 118 % of control
[7]
  T/C: 90 % of control
[6]
  T/C: 104 % of control
dose: 100.0 mg/kg/injection, schedule: Q01DX009 (ip), vehicle: saline
  T/C: 90 % of control
[8]
  T/C: 90 % of control
dose: 150.0 mg/kg/injection, schedule: Q04DX003 (ip), vehicle: saline
  T/C: 109 % of control

## O=C(c1ccccc1Cl)n1c(Cl)c(/C=N\Nc2cccc([N+](=O)[O-])c2)c2ccccc21
dose: 100.0 mg/kg/injection, schedule: Q04DX002 (ip), vehicle: Klucel (hydroxypropylcellulose) (HPC)
  T/C: 90 % of control
dose: 200.0 mg/kg/injection, schedule: Q04DX002 (ip), vehicle: Klucel (hydroxypropylcellulose) (HPC)
  T/C: 89 % of control
dose: 400.0 mg/kg/injection, schedule: Q04DX002 (ip), vehicle: Klucel (hydroxypropylcellulose) (HPC)
  T/C: 90 % of control

## O=C(Nc1cccc(Cl)c1Cl)SCCSC(=O)Nc1cccc(Cl)c1Cl
dose: 12.5 mg/kg/injection, schedule: Q01DX009 (ip), vehicle: gum acacia
  T/C: 118 % of control
dose: 25.0 mg/kg/injection, schedule: Q01DX009 (ip), vehicle: gum acacia
  T/C: 100 % of control
dose: 50.0 mg/kg/injection, schedule: Q01DX009 (ip), vehicle: gum acacia
  T/C: 118 % of control

## CC(=O)CC(Cl)(C(F)(F)F)C(F)(F)F
[7]
  T/C: 100 % of control
[8]
  T/C: 100 % of control
dose: 200.0 mg/kg/injection, schedule: Q04DX003 (ip), vehicle: saline with Tween-80
  T/C: 109 % of control
